Source: patent publication US11324708B1 (UNION therapeutics A/S, priority 2020, dated 2022)

What was measured:
SARS-CoV-2 = SARS-CoV-2 in Vero E6 cells; cited from earlier work
SARS-CoV = conditions: Vero E6 cells; read-out: EC50 of SARS-CoV replication; cited from earlier work
TMEM16A = biological target: T1, TMEM16A (Homo sapiens, UniProt Q5XXA6); conditions: cited from earlier work
T1 sequence (Q5XXA6 1-986): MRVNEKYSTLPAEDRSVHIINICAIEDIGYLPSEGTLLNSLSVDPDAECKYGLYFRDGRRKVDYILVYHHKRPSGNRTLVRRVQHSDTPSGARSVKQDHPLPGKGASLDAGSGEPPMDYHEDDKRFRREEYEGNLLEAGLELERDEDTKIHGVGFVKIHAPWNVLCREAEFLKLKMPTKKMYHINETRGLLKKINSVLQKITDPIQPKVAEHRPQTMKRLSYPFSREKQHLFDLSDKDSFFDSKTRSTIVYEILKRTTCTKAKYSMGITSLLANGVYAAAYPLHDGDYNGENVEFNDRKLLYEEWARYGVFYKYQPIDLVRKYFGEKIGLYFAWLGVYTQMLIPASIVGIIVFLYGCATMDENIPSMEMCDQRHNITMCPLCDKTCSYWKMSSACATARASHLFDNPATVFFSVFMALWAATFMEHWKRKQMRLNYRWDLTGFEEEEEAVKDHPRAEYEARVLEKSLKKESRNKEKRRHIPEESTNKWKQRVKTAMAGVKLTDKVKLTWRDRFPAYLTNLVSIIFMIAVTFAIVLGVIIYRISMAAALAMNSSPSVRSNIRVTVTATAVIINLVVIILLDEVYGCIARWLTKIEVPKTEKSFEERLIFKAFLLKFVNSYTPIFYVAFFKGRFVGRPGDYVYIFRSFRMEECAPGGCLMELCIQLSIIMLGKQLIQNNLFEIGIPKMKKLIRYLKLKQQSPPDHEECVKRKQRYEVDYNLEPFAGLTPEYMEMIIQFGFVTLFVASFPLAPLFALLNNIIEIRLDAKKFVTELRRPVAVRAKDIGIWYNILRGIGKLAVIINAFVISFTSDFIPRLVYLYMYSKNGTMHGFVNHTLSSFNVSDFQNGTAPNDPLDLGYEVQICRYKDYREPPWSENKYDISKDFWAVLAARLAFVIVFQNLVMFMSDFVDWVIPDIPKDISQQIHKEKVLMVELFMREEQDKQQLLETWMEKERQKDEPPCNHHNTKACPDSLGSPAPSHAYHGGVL

in vivo = conditions: sheep
all targeted strains = assay: Minimum Inhibitory Concentration (MIC) assay, all targeted strains; conditions: read-out: MIC against all targeted strains
[1] = tested on: ATCC 29213, MRSA 434844 and S. aureus Newman; assay: Spot test on LB agar, statements for all three strains; format: cell-based; conditions: for bacterial load in repeated spot test, API in DMSO: only the highest concentrations (niclosamide 100 μg/mL, oxyclozanide 40 μg/mL; 200×-400× MIC of Niclo, 180× MIC Oxy)
Protocol: Following incubation, the formed colonies were counted. […] Duplicates were performed.
As both positive controls were negative further the experiment was repeated using different concentrations in a spot test using the same methodology described above.
In this experiment the negative control was the bacterial suspension only.

[2] = oral 2 g/day dose
asthmatic mice = conditions: niclosamide dissolved in corn oil, I.P. injection; cited from earlier work
TMEM 116F = biological target: T2, TMEM 116F (Homo sapiens, UniProt Q4KMQ2); conditions: cited from earlier work
T2 sequence (Q4KMQ2 1-910): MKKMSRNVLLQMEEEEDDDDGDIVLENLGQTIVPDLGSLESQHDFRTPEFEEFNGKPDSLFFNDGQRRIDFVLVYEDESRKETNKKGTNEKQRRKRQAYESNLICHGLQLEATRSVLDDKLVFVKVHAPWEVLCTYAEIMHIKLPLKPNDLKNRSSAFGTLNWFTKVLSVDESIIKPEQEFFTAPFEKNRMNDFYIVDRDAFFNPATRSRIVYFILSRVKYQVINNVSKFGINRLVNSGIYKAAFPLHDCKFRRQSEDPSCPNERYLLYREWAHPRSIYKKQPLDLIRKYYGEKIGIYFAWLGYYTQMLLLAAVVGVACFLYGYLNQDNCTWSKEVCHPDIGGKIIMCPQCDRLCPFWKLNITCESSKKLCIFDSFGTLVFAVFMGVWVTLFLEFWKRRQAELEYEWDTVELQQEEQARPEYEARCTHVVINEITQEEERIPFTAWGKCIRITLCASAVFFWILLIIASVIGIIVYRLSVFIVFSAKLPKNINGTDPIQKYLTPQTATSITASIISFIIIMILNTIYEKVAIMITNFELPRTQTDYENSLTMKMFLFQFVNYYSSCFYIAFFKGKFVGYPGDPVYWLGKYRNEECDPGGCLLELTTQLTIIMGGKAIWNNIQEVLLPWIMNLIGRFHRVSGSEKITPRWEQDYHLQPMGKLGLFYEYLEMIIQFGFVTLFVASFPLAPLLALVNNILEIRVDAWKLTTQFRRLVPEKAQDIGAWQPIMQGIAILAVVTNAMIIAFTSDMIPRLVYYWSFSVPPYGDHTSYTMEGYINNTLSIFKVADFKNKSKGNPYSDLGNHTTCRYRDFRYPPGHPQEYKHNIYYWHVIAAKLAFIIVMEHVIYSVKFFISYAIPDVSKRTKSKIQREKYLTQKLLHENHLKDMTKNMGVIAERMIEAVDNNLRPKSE

## CCN(CC)CCCC(C)Nc1ccnc2cc(Cl)ccc12 (stereo not shown) [chloroquine]
SARS-CoV-2
  EC50: 1.13 µM

## O=C(Nc1ccc([N+](=O)[O-])cc1Cl)c1cc(Cl)ccc1O [niclosamide]
SARS-CoV
  EC50: < 0.1 µM
TMEM16A
  inhibition of Cl- channel TMEM16A: potent inhibitor
In vivo; systemic exposure Cmax (mean)
  Cmax: 577 ng/mL
In vivo; systemic exposure Cmax (range)
  Cmax: 217 to 803 ng/mL
All targeted strains
  MIC: ≤ 0.5 µg/mL
[1]
  bacterial load in repeated spot test, API in DMSO: substantially decreased the bacterial load
[2]
  efficacy margin mean systemic exposure of human oral dose to IC90: 8 fold
Asthmatic mice
  effect in asthmatic mice: reduced mucus production and secretion, as well as bronchoconstriction
TMEM 116F
  inhibition of Cl- channel TMEM 116F: potent inhibitor

## CC(=O)Oc1ccccc1C(=O)Nc1ncc([N+](=O)[O-])s1 [nitazoxanide]
SARS-CoV-2
  EC50: 2.12 µM

## O=C(Nc1cc(Cl)cc(Cl)c1O)c1c(O)c(Cl)cc(Cl)c1Cl [oxyclozanide, Oxyclozanide]
[1]; comparison among formulations
  efficiency in reducing bacterial load: highest efficiency in reducing bacterial load of S. aureus
[1]
  bacterial load in repeated spot test, API in DMSO: substantially decreased the bacterial load
